The source of these data is ChEMBL document CHEMBL3632614, “Small molecules that promote regenerative repair for pancreatic and cardiovascular health” (2015).

Assay [1] is described as follows: Induction of rat beta cell proliferation after 3 days relative to control. Format: functional, Pancreatic beta cell.
For a further assay, the species on record is Rattus norvegicus. Description: Increase in rat beta cell mass in rat T1DM model after 45 days. It is filed as functional.
Assay [2] can be described thus: Induction of rat beta cell proliferation assessed as increase in PDX1 expressing cells relative to control. Format: functional, Pancreatic beta cell.

The structures appear in SMILES notation. A value given as a limit tells only on which side of the number the result lay.

In the case of `COC(=O)C1=C(C)NC(C)=C([N+](=O)[O-])C1c1ccccc1C(F)(F)F` (centres undefined), the “fold change (FC)” value in assay [1] is 2.5.
For `CN1CCN(Cc2ccc(NC(=O)Cc3ccc(Oc4cc(NC(=O)C5CC5)ncn4)cc3)cc2C(F)(F)F)CC1`, the Activity entry in assay [1] is “<=4%”; in the assay filed under Rattus norvegicus, 50%.
As for `Nc1ncnc2nc(-c3ccc(N4CCOCC4)nc3)cc(-c3cccc(Br)c3)c12`, the “fold change (FC)” value in assay [2] is 2.
